Results published in US8470772B2, “Leptin agonist and methods of use” (Temple University—Of The Commonwealth System of Higher …, priority 2008, dated 2013).
Starred links: 1 amine or outer side, 2 acyl side, 3 side chain; linkers in the order of their positions; H or OH if unused. Non-standard residues stand in square brackets, D forms with d. No end group written: not given here. *: point of attachment. βGlcAc4 = CC(=O)OC[C@H]1O[C@@H](*)[C@H](OC(C)=O)[C@@H](OC(C)=O)[C@@H]1OC(C)=O; Tyr(Me) = O-methyl Tyr, COc1ccc(C[C@H](N[*:1])C(=O)[*:2])cc1; Tyr(3,5-I2) = N[C@@H](Cc1cc(I)c(O)c(I)c1)C(=O)O; dGla = N[C@H](CC(C(=O)O)C(=O)O)C(=O)O; Dap = NC[C@H](N)C(=O)O; βAla = NCCC(=O)O

How the values were obtained:
ObR extracellular domain = biological target: T1, ObR extracellular domain (Homo sapiens, UniProt P48357); assay: Dot-blot and ELISA-type solid-phase binding assay; conditions: dot-blot, Western-blot or ELISA; 10 and 20 μg peptide load in ELISA
T1 construct: human IgG Fc-conjugated ObR extracellular domain (R&D Systems); purchased R&D Systems
T1 sequence (P48357 22-839 limits assumed): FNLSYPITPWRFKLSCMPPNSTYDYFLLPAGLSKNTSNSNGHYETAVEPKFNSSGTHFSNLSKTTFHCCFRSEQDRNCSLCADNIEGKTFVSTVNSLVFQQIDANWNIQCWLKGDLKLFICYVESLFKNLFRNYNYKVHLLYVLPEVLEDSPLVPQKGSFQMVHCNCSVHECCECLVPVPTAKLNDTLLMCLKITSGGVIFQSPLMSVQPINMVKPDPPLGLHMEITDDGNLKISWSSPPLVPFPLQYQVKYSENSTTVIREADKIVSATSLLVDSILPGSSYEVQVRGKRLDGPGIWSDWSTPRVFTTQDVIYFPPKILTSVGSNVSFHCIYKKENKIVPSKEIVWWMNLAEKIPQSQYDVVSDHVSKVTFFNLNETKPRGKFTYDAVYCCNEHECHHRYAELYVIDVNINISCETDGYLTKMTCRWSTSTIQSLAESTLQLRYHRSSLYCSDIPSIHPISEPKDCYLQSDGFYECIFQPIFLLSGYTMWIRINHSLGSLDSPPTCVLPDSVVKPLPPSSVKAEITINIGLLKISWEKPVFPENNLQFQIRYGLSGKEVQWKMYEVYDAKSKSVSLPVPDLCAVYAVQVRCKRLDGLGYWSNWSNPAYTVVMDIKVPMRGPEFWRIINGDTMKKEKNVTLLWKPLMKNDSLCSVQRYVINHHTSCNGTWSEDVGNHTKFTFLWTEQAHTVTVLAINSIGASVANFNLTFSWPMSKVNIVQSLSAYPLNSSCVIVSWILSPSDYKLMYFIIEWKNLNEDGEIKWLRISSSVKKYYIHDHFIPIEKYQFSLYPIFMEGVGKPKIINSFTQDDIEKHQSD
Experimental: For dot-blot and ELISA assays, the leptin fragments were dissolved in electroblot transfer buffer (25 mM Tris and […] buffer containing 20% methanol) and were applied to either a nitrocellulose membrane or dried upon ELISA plates (Otvos, L., Jr., and Szendrei, G. I. (1996) Enzyme-linked immunosorbent assay of peptides. In: Neuropeptide Protocols (G. B. Irvine and C. H. Williams, eds.). Humana Press, Totowa, N.J., pp. 269-275). The solid surfaces were blocked with 5% BSA in a PBS-0.5% Tween 20 buffer (PBST) for 3 hours at room temperature and were subsequently incubated with 10 μg/mL solution of human IgG Fc-conjugated ObR extracellular domain (R&D Systems) dissolved in Tris-buffered saline-0.1% Tween 20 buffer (TBST) containing 1% bovine serum albumin (BSA) for 1 hour. A monoclonal goat antibody (Santa Cruz Biotechnology), specific for the N-terminus of human ObR, was added to the assay mixture, followed by addition of a horseradish peroxidase(HRP)-conjugated anti-goat IgG donkey antibody for the dot-blot assay, and HRP-conjugated anti-goat Fc mouse antibody for ELISA assay (used at a 1:15,000 dilution in PBST and 1% BSA). Between reagents, the solid surfaces were washed extensively with PBST. After washing with PBST, the membrane was treated with a chemiluminescence luminol oxidizer (NEN) for 1 min. The resultant chemiluminescence was exposed to a X-Omat blue XB-1 film (Kodak) for 10 seconds, and the exposed film was developed. The ELISA was developed using an HRP ELISA kit including tetramethylbenzidine as a substrate and sulfuric acid as a stop solution. Optical absorbance values were read at 490 nm using a microplate reader.

MCF-7 cells = assay: MCF-7 cell stimulation (cell growth) assay, cell counts by trypan blue exclusion; type: cell-based, human; conditions: for Relative stimulation (%) of MCF-7 cells, No leptin added: no exogenous leptin; for antagonistic activity on leptin-induced MCF-7 cell proliferation: in the presence of exogenous leptin; for reversal of leptin-induced cell stimulation: leptin present; for agonistic activity on MCF-7 cells: without leptin; for MCF-7 cell count increase: no leptin
From the text: (§1) For the evaluation of the biological activity of the synthesized leptin Site III peptide fragments, human cell lines were selected in which the ObR expression level is known. Two ObR-positive human cell models were used: MCF-7 breast cancer cells and DU-45 prostate cancer cells. Both cell lines express ObR, and leptin and leptin analogues stimulate their growth (C. Garofalo, et al., Clin. Cancer Res., 2004, 10, 6466-6475; C. Garofalo, et al., Clin. Cancer Res., 2006, 12, 1447-1453). Normal mammary epithelial MCF-10 cells lacking ObR were used as a negative control (X. Hu, et al., J. Natl. Cancer Inst., 2002, 94, 1704-1711).
Biological activity of the Site III peptides was assayed as follows. MCF-7 cells were stimulated with 6 nM full-sized leptin. The smaller leptin fragments and analogs were added to the cell culture at a concentration of 10 nM, 100 nM or 1 μM. Leptin at […] concentration stimulated MCF-7 cell growth by approximately 40%, in line with previous observations (C. Garofalo, et al., Clin. Cancer Res., 2004, 10, 6466-6475). All Site III peptides bound to the extracellular domain of ObR as documented by dot-blot or Western-blot analysis. […] In fact, it reversed leptin induced stimulation of MCF-7 cells at as low as 10 nM peptide concentration, with an additional 50% reduction in cell counts at 1 μM. When the assay was run at a more reliably measurable 1 μM peptide concentration, a consistent 6% decrease in cell numbers could be observed compared to the leptin only samples. In summary, in the presence of exogenously added full-sized leptin these assays verified the strong antagonist activity of the Site III Ala,Ala mutant.
(§2) The cell stimulation activity of the Site III peptides was assayed as follows. Human leptin was purchased from R&D Systems and used at a concentration of 100 ng/mL (approximately 6 nM). MCF-7 and DU-45 cells naturally expressing ObR were grown in a standard medium DMEM:F12 plus 5% fetal bovine serum. MCF-10 was grown in serum-free mammalian epithelial growth medium supplemented with 100 ng/mL cholera toxin. Seventy percent confluent cultures were synchronized in serum-free medium (DMEM plus 10 μM FeSO4, plus 0.5% albumin) for 24 h and then treated with leptin and/or peptides (different doses) for 5 days. Cell counts before and after treatment were determined by counting the cells using trypan blue exclusion. All assays were conducted in triplicate and repeated at least twice.

[1] = test system: astrocytes, brain capillary endothelial cells; assay: In vitro model of blood-brain-barrier penetration (Transwell cell layers); type: in vitro ADME, human; conditions: 0.1 mM peptide in upper compartment
From the text: To confirm the ability of the E1 peptides to cross the blood-brain barrier, penetration of the protected (E1Ac) and free (E1Free) glycopeptides across confluent layers of astrocytes, brain endothelial cells, or a double layer of these two cell types was examined, in comparison with the Site III Ala,Ala non-glycosylated analog.
A confluent monolayer of human astrocytes or brain capillary endothelial cells, or a dual layer of both cell types (astrocytes first, followed by endothelial cells) were grown at 37° C. on polycarbonate filters (Costar, Transwell, 0.4 μm) that were pretreated with collagen. Under these conditions, the endothelial cells retain the characteristics of the blood-brain-barrier, which include complex tight junctions, low rates of pinocytosis and low enzyme levels (S. Lundquist, et al., Pharm. Res., 2002, 19, 976-981). A 0.1 mM solution of each of E1Ac, E1Free or Site III Ala,Ala was added to the upper compartment of the Transwell plates. The plates were then placed back in the incubator and samples were taken from the bottom compartments at 0, 5, 10, 30, and 120 minute intervals. The identity and quantity of peptides that had penetrated through the cell layers were subsequently analyzed by RP-HPLC and MALDI-MS.

MCF-10 cells = assay: MCF-10 control cell proliferation assay (cells lacking ObR); type: cell-based, human; conditions: for effect on the proliferation of MCF-10 cells: control cell line lacking ObR
From the text: as §1, §2

DU-45 cells = assay: DU-45 cell stimulation (proliferation) assay; type: cell-based, human
From the text: as §1
as §2, with “All assays were conducted in triplicate and repeated at least twice.” left out

Q: For “pyrrhocoricin: negative control antibacterial peptide with Pro-Arg-Pro repeats, equal in size with the leptin fragments (VDKGSYLPRPTPPRPIYNRN) [reference compound]”, which “binding to the extracellular domain of ObR” value (ObR extracellular domain) is on record?
A: did not bind

Q: Which results are given for “Tyr(Me)-Ser-Thr-Glu-Val-Val-βAla-Leu-Ser-Arg-Leu ([Tyr(Me)]STEVV[βAla]LSRL-NH2) [A11]”?
A: Relative stimulation (%) of MCF-7 cells, No leptin added (MCF-7 cells; 1 μM peptide): +19%; antagonistic activity on leptin-induced MCF-7 cell proliferation (MCF-7 cells): basically inactive

Q: What does the source list for “Gly-Tyr(I2)-Ser-Thr-D-Gla-Val-Val-D-Ala-Leu-Ser-Arg-Leu [F2]”?
A: reversal of leptin-induced cell stimulation (MCF-7 cells; 1 μM peptide): 15%; Relative stimulation (%) of MCF-7 cells, With 10 nM leptin (MCF-7 cells; 1 μM peptide, with 10 nM leptin): −15%; antagonistic activity on leptin-induced MCF-7 cell proliferation (MCF-7 cells): antagonists; agonistic activity on MCF-7 cells (MCF-7 cells): agonists

Q: For “Gly-Tyr(I2)-Ser-Thr-Glu-Val-Va1-βAla-Leu-Ser-Arg-Leu (G[Tyr(3,5-I2)]STEVV[βAla]LSRL-NH2) [A4]”, which “Relative stimulation (%) of MCF-7 cells, No leptin added” value (MCF-7 cells; 1 μM peptide) is on record?
A: +102%

Q: With “SGYAAEVVALSRLQGS-NH2 [Site III Ala,Ala, Ser-Gly-Tyr-Ala-Ala-Glu-Val-Val-Ala-Leu-Ser-Arg-Leu-Gln-Gly-Ser]” as the substance, how does the “earliest time point at which peptide was detected in the bottom compartment” value [1] read?
A: 30 min

Q: With “Leptin: Human leptin purchased from R&D Systems; full-length sequence SEQ ID NO:1” as the substance, how does the “stimulation of MCF-7 cell growth” value (MCF-7 cells; leptin at 10 nM) read?
A: approximately 40%

Q: How did the “reversal of leptin-induced cell stimulation” value (MCF-7 cells; 1 μM peptide) turn out when “Tyr(Me)-Ser-Thr-D-Gla-Val-Val-D-Ala-Leu-Ser-Arg-Leu ([Tyr(Me)]ST[dGla]VV[dA]LSRL-NH2) [D12]” was run?
A: 43%

Q: What about the “antagonistic activity on leptin-induced MCF-7 cell proliferation” value (MCF-7 cells) of the same substance?
A: antagonists

Q: What about the “agonistic activity on MCF-7 cells” value (MCF-7 cells) of the same substance?
A: agonists

Q: How did the “activity on MCF-10 normal mammary epithelial cells” value (MCF-10 cells; 100 nM and 1000 nM peptide) turn out when “Tyr(I2)-Serβ(GlcAc4)-Thr-Glu-Val-Val-Ala-Leu-Ser-Arg-Leu-Dap(Ac) ([Tyr(3,5-I2)]S(βGlcAc4)TEVVALSRL[Dap](Ac)-NH2) [E1Ac]” was run?
A: inactive

Q: And the “MCF-7 cell count increase” value (MCF-7 cells; 100 nM peptide)?
A: 54%

Q: And the “further increase of leptin-induced cell stimulation” value (MCF-7 cells; 1000 nM peptide, in the presence of 6 nM leptin)?
A: 17%

Q: And the “MCF-7 cell count increase” value (MCF-7 cells; 1000 nM peptide)?
A: 101%

Q: What about the “overall agonist character on cells expressing ObR” value (MCF-7 cells; in the presence and absence of leptin) of the same substance?
A: full agonists

Q: And the “binding to the extracellular domain of ObR” value (ObR extracellular domain)?
A: bound

Q: What does the source list for SGYSTEVVALSRLQGS [Site III 117-132]?
A: effect on the proliferation of MCF-10 cells (MCF-10 cells; listed as Site III peptide): did not demonstrate a major effect; effect on the proliferation of MCF-10 cells (MCF-10 cells; listed as site III fragment): no effect; effect on the proliferation of DU-45 cells (DU-45 cells): no effect; reduction in leptin-induced cell growth (MCF-7 cells; 1 μM peptide, in the presence of 10 nM leptin): 21%; agonistic activity on MCF-7 cells (MCF-7 cells): did not noticeably influence the cell growth
